Reference: US7652029B2, “Therapeutic compound and treatments” (priority 2004, dated 2010)

Tests used:
Assay in all cases: NCI multiple cell line test (SRB)
Assay type in all cases: cell-based, human
M14 = M14 (Melanoma), 48 h
Method: (§1) The NCI tested MT477 60 cell line test, and reported the GI50, TGI, and LC50 values of MT477 for each cell line, reported herein at Table 3.
(§2) Methodology: The NCI conducted a test of the MT477 drug against about 60 human cell lines, with a minimum of five concentrations of MT477 at 10-fold dilutions, with no more than 5(10)^−5 molar of drug being used. A 48 hour continuous drug exposure was used, and a sulforhodamine B (SRB) protein assay was used to estimate cell viability and growth. The human tumor cell lines of the cancer screening panel were grown in RPMI 1640 medium containing 5% fetal bovine serum and 2 mM L-glutamine. Cells were inoculated into 96 well microtiter plates in 100 μL at plating densities ranging from 5,000 to 40,000 cells/well depending on the doubling time of individual cell lines. After cell inoculation, the microtiter plates are incubated at 37° C., 5% CO2, 95% air, and 100% relative humidity for 24 h prior to addition of experimental drugs.
(§3) After 24 h, two plates of each cell line were fixed in situ with TCA, to represent a measurement of the cell population for each cell line at the time of drug addition (Tz). MT477 was solubilized in dimethyl sulfoxide at 400-fold the desired final maximum test concentration and stored frozen prior to use. At the time of drug addition, an aliquot of frozen concentrate was thawed and diluted to twice the desired final maximum test concentration with complete medium containing 50 μg/ml gentamicin. Additional four, 10-fold or ½ log serial dilutions were made to provide a total of five drug concentrations plus control. Aliquots of 100 μl of these different drug dilutions were added to the appropriate microtiter wells already containing 100 μl of medium, resulting in the required final drug concentrations.
(§4) Following drug addition, the plates were incubated for an additional 48 h at 37° C., 5% CO2, 95% air, and 100% relative humidity. For adherent cells, the assay was terminated by the addition of cold TCA. Cells were fixed in situ by the gentle addition of 50 μl of cold 50% (w/v) TCA (final concentration, 10% TCA) and incubated for 60 minutes at 4° C. The supernatant was discarded, and the plates were washed five times with tap water and air dried. Sulforhodamine B (SRB) solution (100 μl) at 0.4% (w/v) in 1% acetic acid was added to each well, and plates were incubated for 10 minutes at room temperature. After staining, unbound dye was removed by washing five times with 1% acetic acid and the plates were air-dried. Bound stain was subsequently solubilized with 10 mM trizma base, and the absorbance was read on an automated plate reader at a wavelength of 515 nm. For suspension cells, the methodology was the same except that the assay was terminated by fixing settled cells at the bottom of the wells by gently adding 50 μl of 80% TCA (final concentration, 16% TCA). Using the seven absorbance measurements (time zero, (Tz), control growth, (C), and test growth in the presence of drug at the five concentration levels (Ti)), the percentage growth was calculated at each of the drug concentrations levels. Percentage growth inhibition was calculated as: [(Ti−Tz)/(C−Tz)]×100 for concentrations for which Ti>/=Tz [(Ti−Tz)/Tz]×100 for concentrations for which Ti<Tz.
(§5) Three dose response parameters were calculated for each experimental agent. Growth inhibition of 50% (GI50) was calculated from [(Ti−Tz)/(C−Tz)]×100=50, which is the drug concentration resulting in a 50% reduction in the net protein increase (as measured by SRB staining) in control cells during the drug incubation. The drug concentration resulting in total growth inhibition (TGI) was calculated from Ti=Tz. The LC50 (concentration of drug resulting in a 50% reduction in the measured protein at the end of the drug treatment as compared to that at the beginning) indicating a net loss of cells following treatment was calculated from [(Ti−Tz)/Tz]×100=−50. […]

NCI-H322M = NCI-H322M (Non-Small Cell Lung Cancer), 48 h
Method: as §1, §2, §3, §4, §5

HL-60 (TB) = HL-60 (TB) (Leukemia), 48 h
Method: as §1, §2, §3, §4, §5

SK-MEL-28 = SK-MEL-28 (Melanoma), 48 h
KM12 = KM12 (Colon Cancer), 48 h
[1] = Homo sapiens, read-out: −log10GI50 (converted)

Structure (SMILES): COC(=O)C1=C(C(=O)OC)SC2(S1)C(C(=O)OC)=C(C(=O)OC)SC1=C2c2cccc(OC)c2N(C(=O)CN2C(=O)CCC2=O)C1(C)C [MT477]
- −log10GI50 (M14): 602 molar
- IC50 (NCI-H322M; [1]): 6.46 µM
- −log10TGI (NCI-H322M): 4.87 molar
- −log10LC50 (HL-60 (TB)): * (effect not reached at maximum dose of 0.05 millimolar)
- −log10TGI (HL-60 (TB)): 4.83 molar
- IC50 (HL-60 (TB); [1]): 2190 nM
- IC50 (SK-MEL-28; [1]): 1550 nM
- −log10LC50 (SK-MEL-28): * (effect not reached at maximum dose of 0.05 millimolar)
- −log10TGI (SK-MEL-28): 5.27 molar
- IC50 (KM12; [1]): 2290 nM
- −log10LC50 (KM12): * (effect not reached at maximum dose of 0.05 millimolar)
- −log10TGI (KM12): * (effect not reached at maximum dose of 0.05 millimolar)
